# Tests used:
# [1] = test system: Wnt activity (Sp5-Luc reporter, SW480 colon carcinoma cells); assay: Sp5-Luc Wnt reporter gene screening assay in SW480 colon carcinoma cells; conditions: Homo sapiens
# Experimental: The screening assay for Wnt activity is described as follows.
# SW480 colon carcinoma cells were transduced with a lentiviral vector expressing luciferase with a human Sp5 promoter consisting of a sequence of eight TCF/LEF binding sites. SW480 cells stably expressing the Sp5-Luc reporter gene and a hygromycin resistance gene were selected by treatment with 150 μg/ml of hygromycin for 7 days. These stably transduced SW480 cells were expanded in cell culture and used for all further screening activities. For Sp5-Luc reporter gene assays, the cells were plated at 10,000 cells/well in 96-well plates with growth medium containing 10% fetal calf serum and incubated overnight at 37° C. and 5% CO2. […] Compound transfer from serially diluted source plates to assay plates containing the cells was accomplished using a pintool (Multimek 96, Beckman equipped with V&P Scientific FP1S50H pins) based liquid handling protocol. This protocol used a slotted pin to transfer 50 nl of compound from a source plate well to an assay plate well containing 50 μl of cells in growth medium. […] Control wells received 50 nl of DMSO treatment for normalization and calculating IC50 values. The treated cells were incubated at 37° C. and 5% CO2 for an additional forty-two hours. Following incubation, the growth medium was removed and 50 μl of BrightGlo luminescence reagent (Promega) was added to each well of the 96-well assay plates. The plates were placed on an orbital shaker for 5 min and then luminescence was quantified on the Victor3 (Perkin Elmer) plate reader.
# [2] = test system: primary human fibroblasts derived from IPF patients (LL29 cells); assay: Inhibition of fibrosis (αSMA staining) in TGF-β1-treated primary human fibroblasts from IPF patients; assay type: cell-based; conditions: Fibroblast, 96 h, TGF-β1 20 ng/mL, 4 days
# Experimental: The above synthesized compounds were screened using primary human fibroblasts (derived from IPF patients) treated with TGF-β1 to determine their ability to inhibit the fibrotic process.
# Compound Screening: Each compound was dissolved in DMSO as a 10 mM stock and used to prepare compound source plates. […] LL29 cells were plated at 1,500 cells/well in 80 μl/well F12 medium supplemented with 1% Fetal Bovine Serum. One hour after addition of the cells, TGF-β1 (Peprotech; 20 ng/mL) was added to the plates to induce fibrosis (ref. 1 and 2 above). Wells treated with TGF-β1 and containing DMSO were used as controls. Cells were incubated at 37° C. and 5% CO2 for 4 days. Following incubation for 4 days, SYTOX green nucleic acid stain (Life Technologies [Thermo Fisher Scientific]) was added to the wells at a final concentration of 1 uM and incubated at room temperature for 30 min. Cells were then fixed using 4% formaldehyde (Electron Microscopy Sciences), washed 3 times with PBS followed by blocking and permeabilization using 3% Bovine Serum Albumin (BSA; Sigma) and 0.3% Triton X-100 (Sigma) in PBS. Cells were then stained with antibody specific to α-smooth muscle actin (aSMA; Abcam) (ref. 1 and 2 above) in 3% Bovine Serum Albumin (BSA; Sigma) and 0.3% Triton X-100 (Sigma) in PBS, and incubated overnight at 4° C. […] Dead or apoptotic cells were excluded from analysis based on positive SYTOX green staining. % of total cells positive for αSMA were counted in each well and normalized to the average of 11 wells treated with TGF-β1 on the same plate using Dotmatics' Studies Software. […] The EC50 values are reported.
smiles,measurement,setting,value
"O=C(Cc1ccccc1)Nc1cncc(-c2cc3c(-c4nc5ccccc5[nH]4)n[nH]c3cn2)c1 [Compound 244, N-(5-(3-(1H-Benzo[d]imidazol-2-yl)-1H-pyrazolo[3,4-c]pyridin-5-yl)pyridin-3-yl)-2-phenylacetamide]",IC50,[1],211 nM
same,EC50,[2],1960 nM
"CC(C)(C)CC(=O)Nc1cncc(-c2cc3c(-c4nc5ccccc5[nH]4)n[nH]c3cn2)c1 [Compound 250, N-(5-(3-(1H-Benzo[d]imidazol-2-yl)-1H-pyrazolo[3,4-c]pyridin-5-yl)pyridin-3-yl)-3,3-dimethylbutanamide]",IC50,[1],183 nM
same,EC50,[2],258 nM
"Cc1ccncc1-c1cc2c(-c3nc4c(-c5ccsc5)cccc4[nH]3)n[nH]c2cn1 [Compound 265, 5-(4-Methylpyridin-3-yl)-3-(4-(thiophen-3-yl)-1H-benzo[d]imidazol-2-yl)-1H-pyrazolo[3,4-c]pyridine]",IC50,[1],19.4 nM
same,EC50,[2],9 nM
"CC(C)(C)C(=O)Nc1cncc(-c2cc3c(-c4nc5c(-c6ccsc6)cccc5[nH]4)n[nH]c3cn2)c1 [Compound 268, N-(5-(3-(4-(Thiophen-3-yl)-1H-benzo[d]imidazol-2-yl)-1H-pyrazolo[3,4-c]pyridin-5-yl)pyridin-3-yl)pivalamide]",IC50,[1],76.1 nM
same,EC50,[2],9 nM
"O=C(Nc1cncc(-c2cc3c(-c4nc5c(-c6ccsc6)cccc5[nH]4)n[nH]c3cn2)c1)c1ccccc1 [Compound 271, N-(5-(3-(4-(Thiophen-3-yl)-1H-benzo[d]imidazol-2-yl)-1H-pyrazolo[3,4-c]pyridin-5-yl)pyridin-3-yl)benzamide]",IC50,[1],53.8 nM
same,EC50,[2],9 nM
"CCCC(=O)Nc1cncc(-c2cc3c(-c4nc5c(-c6ccsc6)cccc5[nH]4)n[nH]c3cn2)c1 [Compound 277, N-(5-(3-(4-(Thiophen-3-yl)-1H-benzo[d]imidazol-2-yl)-1H-pyrazolo[3,4-c]pyridin-5-yl)pyridin-3-yl)butyramide]",IC50,[1],43.5 nM
same,EC50,[2],9 nM
"c1ccc(CNCc2cncc(-c3cc4c(-c5nc6c(-c7ccsc7)cccc6[nH]5)n[nH]c4cn3)c2)cc1 [Compound 283, N-Benzyl-1-(5-(3-(4-(thiophen-3-yl)-1H-benzo[d]imidazol-2-yl)-1H-pyrazolo[3,4-c]pyridin-5-yl)pyridin-3-yl)methanamine]",IC50,[1],30.9 nM
same,EC50,[2],9 nM
"CCNCc1cncc(-c2cc3c(-c4nc5c(-c6ccoc6)cccc5[nH]4)n[nH]c3cn2)c1 [Compound 292, N-((5-(3-(4-(Furan-3-yl)-1H-benzo[d]imidazol-2-yl)-1H-pyrazolo[3,4-c]pyridin-5-yl)pyridin-3-yl)methyl)ethanamine]",IC50,[1],29.6 nM
same,EC50,[2],9 nM
"CC(C)(C)C(=O)Nc1cncc(-c2cc3c(-c4nc5c(-c6ccoc6)cccc5[nH]4)n[nH]c3cn2)c1 [Compound 294, N-(5-(3-(4-(Furan-3-yl)-1H-benzo[d]imidazol-2-yl)-1H-pyrazolo[3,4-c]pyridin-5-yl)pyridin-3-yl)pivalamide]",IC50,[1],48.6 nM
same,EC50,[2],9 nM
"CC(C)C(=O)Nc1cncc(-c2cc3c(-c4nc5c(-c6ccoc6)cccc5[nH]4)n[nH]c3cn2)c1 [Compound 295, N-(5-(3-(4-(Furan-3-yl)-1H-benzo[d]imidazol-2-yl)-1H-pyrazolo[3,4-c]pyridin-5-yl)pyridin-3-yl)isobutyramide]",IC50,[1],39.3 nM
same,EC50,[2],249 nM
"CC(C)Nc1cncc(-c2cc3c(-c4nc5c(-c6ccoc6)cccc5[nH]4)n[nH]c3cn2)c1 [Compound 298, 5-(3-(4-(Furan-3-yl)-1H-benzo[d]imidazol-2-yl)-1H-pyrazolo[3,4-c]pyridin-5-yl)-N-isopropylpyridin-3-amine]",IC50,[1],12.9 nM
same,EC50,[2],9 nM
"c1cc(-c2ccoc2)c2nc(-c3n[nH]c4cnc(-c5cncc(CNCC6CCCC6)c5)cc34)[nH]c2c1 [Compound 310, 1-Cyclopentyl-N-((5-(3-(4-(furan-3-yl)-1H-benzo[d]imidazol-2-yl)-1H-pyrazolo[3,4-c]pyridin-5-yl)pyridin-3-yl)methyl)methanamine]",IC50,[1],58.8 nM
same,EC50,[2],83 nM
"CCC(=O)Nc1cncc(-c2cc3c(-c4nc5c(-c6cccs6)cccc5[nH]4)n[nH]c3cn2)c1 [Compound 313, N-(5-(3-(4-(Thiophen-2-yl)-1H-benzo[d]imidazol-2-yl)-1H-pyrazolo[3,4-c]pyridin-5-yl)pyridin-3-yl)propionamide]",IC50,[1],126 nM
same,EC50,[2],455 nM
"CC(C)(C)C(=O)Nc1cncc(-c2cc3c(-c4nc5c(-c6cccs6)cccc5[nH]4)n[nH]c3cn2)c1 [Compound 320, N-(5-(3-(4-(Thiophen-2-yl)-1H-benzo[d]imidazol-2-yl)-1H-pyrazolo[3,4-c]pyridin-5-yl)pyridin-3-yl)pivalamide]",IC50,[1],56.6 nM
same,EC50,[2],96 nM
"CC(C)C(=O)Nc1cncc(-c2cc3c(-c4nc5c(-c6cccs6)cccc5[nH]4)n[nH]c3cn2)c1 [Compound 321, N-(5-(3-(4-(Thiophen-2-yl)-1H-benzo[d]imidazol-2-yl)-1H-pyrazolo[3,4-c]pyridin-5-yl)pyridin-3-yl)isobutyramide]",IC50,[1],16.3 nM
same,EC50,[2],306 nM
"CN(C)Cc1cncc(-c2cc3c(-c4nc5c(-c6cccs6)cccc5[nH]4)n[nH]c3cn2)c1 [Compound 325, N,N-Dimethyl-1-(5-(3-(4-(thiophen-2-yl)-1H-benzo[d]imidazol-2-yl)-1H-pyrazolo[3,4-c]pyridin-5-yl)pyridin-3-yl)methanamine]",IC50,[1],26.7 nM
same,EC50,[2],9 nM
"CCCC(=O)Nc1cncc(-c2cc3c(-c4nc5c(-c6cccs6)cccc5[nH]4)n[nH]c3cn2)c1 [Compound 329, N-(5-(3-(4-(Thiophen-2-yl)-1H-benzo[d]imidazol-2-yl)-1H-pyrazolo[3,4-c]pyridin-5-yl)pyridin-3-yl)butyramide]",IC50,[1],56 nM
same,EC50,[2],67 nM
"FC1(F)CCN(Cc2cncc(-c3cc4c(-c5nc6c(-c7cccs7)cccc6[nH]5)n[nH]c4cn3)c2)C1 [Compound 337, 5-(5-((3,3-Difluoropyrrolidin-1-yl)methyl)pyridin-3-yl)-3-(4-(thiophen-2-yl)-1H-benzo[d]imidazol-2-yl)-1H-pyrazolo[3,4-c]pyridine]",IC50,[1],90.8 nM
same,EC50,[2],9 nM
"Fc1ccc(-c2cccc3[nH]c(-c4n[nH]c5cnc(-c6cncc(CN7CCCC7)c6)cc45)nc23)s1 [Compound 352, 3-(4-(5-Fluorothiophen-2-yl)-1H-benzo[d]imidazol-2-yl)-5-(5-(pyrrolidin-1-ylmethyl)pyridin-3-yl)-1H-pyrazolo[3,4-c]pyridine]",IC50,[1],30.5 nM
same,EC50,[2],9990 nM
"O=C(Nc1cncc(-c2cc3c(-c4nc5c(-c6ccc(F)s6)cccc5[nH]4)n[nH]c3cn2)c1)C1CCC1 [Compound 358, N-(5-(3-(4-(5-Fluorothiophen-2-yl)-1H-benzo[d]imidazol-2-yl)-1H-pyrazolo[3,4-c]pyridin-5-yl)pyridin-3-yl)cyclobutanecarboxamide]",IC50,[1],11.6 nM
same,EC50,[2],9990 nM
"Cc1ccc(-c2cccc3[nH]c(-c4n[nH]c5cnc(-c6cncc(NC(=O)CC(C)C)c6)cc45)nc23)s1 [Compound 366, 3-Methyl-N-(5-(3-(4-(5-methylthiophen-2-yl)-1H-benzo[d]imidazol-2-yl)-1H-pyrazolo[3,4-c]pyridin-5-yl)pyridin-3-yl)butanamide]",IC50,[1],31.1 nM
same,EC50,[2],224 nM
"Cc1ccc(-c2cccc3[nH]c(-c4n[nH]c5cnc(-c6cncc(NC(=O)C(C)C)c6)cc45)nc23)s1 [Compound 373, N-(5-(3-(4-(5-Methylthiophen-2-yl)-1H-benzo[d]imidazol-2-yl)-1H-pyrazolo[3,4-c]pyridin-5-yl)pyridin-3-yl)isobutyramide]",IC50,[1],32.6 nM
same,EC50,[2],14 nM
"Cc1ccc(-c2cccc3[nH]c(-c4n[nH]c5cnc(-c6cncc(CN7CCCCC7)c6)cc45)nc23)s1 [Compound 379, 3-(4-(5-Methylthiophen-2-yl)-1H-benzo[d]imidazol-2-yl)-5-(5-(piperidin-1-ylmethyl)pyridin-3-yl)-1H-pyrazolo[3,4-c]pyridine]",IC50,[1],359 nM
same,EC50,[2],9 nM
"CCCC(=O)Nc1cncc(-c2cc3c(-c4nc5c(-c6ccc(C)s6)cccc5[nH]4)n[nH]c3cn2)c1 [Compound 381, N-(5-(3-(4-(5-Methylthiophen-2-yl)-1H-benzo[d]imidazol-2-yl)-1H-pyrazolo[3,4-c]pyridin-5-yl)pyridin-3-yl)butyramide]",IC50,[1],21.5 nM
same,EC50,[2],79 nM
"Cc1ccc(-c2cccc3[nH]c(-c4n[nH]c5cnc(-c6cncc(NC(=O)C7CCCC7)c6)cc45)nc23)s1 [Compound 385, N-(5-(3-(4-(5-Methylthiophen-2-yl)-1H-benzo[d]imidazol-2-yl)-1H-pyrazolo[3,4-c]pyridin-5-yl)pyridin-3-yl)cyclopentanecarboxamide]",IC50,[1],33.1 nM
same,EC50,[2],20 nM
"CC(=O)c1ccc(-c2cccc3[nH]c(-c4n[nH]c5cnc(-c6cccnc6)cc45)nc23)s1 [Compound 394, 1-(5-(2-(5-(Pyridin-3-yl)-1H-pyrazolo[3,4-c]pyridin-3-yl)-1H-benzo[d]imidazol-4-yl)thiophen-2-yl)ethan-1-one]",IC50,[1],44.3 nM
same,EC50,[2],110 nM
